Assay results taken from patent publication US20220386606A1, “SPECIFICALLY SUBSTITUTED 3-PHENYL-5-SPIROCYCLOPENTYL-3-PYRROLIN-2-ONES AND THEIR USE AS HERBICIDES” (Bayer Aktiengesellschaft, priority 2019, published 2022).

How the values were obtained:
HORMU = assay: Post-emergence herbicidal action against HORMU; assay type: in vivo, Hordeum murinum; settings: 80 g/ha, visual assessment about 3 weeks after treatment vs untreated controls
Experimental: (§1) Seeds of monocotyledonous and dicotyledonous weed and crop plants are laid out in sandy loam soil in wood-fiber pots, covered with soil and cultivated in a greenhouse under good growth conditions. 2 to 3 weeks after sowing, the test plants are treated at the one-leaf stage. The compounds of the invention, formulated in the form of wettable powders (WP) or as emulsion concentrates (EC), are then sprayed onto the green parts of the plants as aqueous suspension or emulsion at a water application rate equating to 600 to 800 l/ha with addition of 0.2% wetting agent. After the test plants have been left to stand in the greenhouse under optimal growth conditions for about 3 weeks, the action of the preparations is assessed visually in comparison to untreated controls (herbicidal action in percent (%): 100% activity=the plants have died, 0% activity=like control plants).

ECHCG = assay: Post-emergence herbicidal action against ECHCG; assay type: in vivo, Echinochloa crus-galli; settings: 80 g/ha, visual assessment about 3 weeks after treatment vs untreated controls
Procedure, shortened: (§2)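 Sow in sandy loam and grow in the greenhouse for 2 to 3 weeks to the one-leaf stage. Spray the compound as an aqueous suspension or emulsion with 0.2% wetting agent, 600 to 800 l/ha water rate. Hold about 3 weeks, then score damage visually versus controls.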

ALOMY = assay: Post-emergence herbicidal action against ALOMY; assay type: in vivo, Alopecurus myosuroides; settings: 80 g/ha, visual assessment after about 3 weeks
Procedure, shortened: as §2

SETVI = assay: Post-emergence herbicidal action against SETVI; assay type: in vivo, Setaria viridis; settings: 80 g/ha, visual assessment about 3 weeks after treatment vs untreated controls
Procedure, shortened: as §2

AVEFA = assay: Post-emergence herbicidal action against AVEFA; assay type: in vivo, Avena fatua; settings: 80 g/ha, visual assessment after about 3 weeks
Procedure, shortened: as §2

DIGSA = assay: Post-emergence herbicidal action against DIGSA; assay type: in vivo, Digitaria sanguinalis; settings: 80 g/ha, visual assessment about 3 weeks after treatment vs untreated controls
Procedure, shortened: as §2

LOLRI = assay: Post-emergence herbicidal action against LOLRI; assay type: in vivo, Lolium rigidum; settings: 80 g/ha, visual assessment about 3 weeks after treatment vs untreated controls
Procedure, shortened: as §2

ABUTH = assay: Post-emergence herbicidal action against ABUTH; assay type: in vivo, Abutylon threophrasti; settings: 80 g/ha, visual assessment about 3 weeks after treatment vs untreated controls
Experimental: as §1

| SMILES | Post-emergence action against HORMU in % (HORMU) [%] | Post-emergence action against ECHCG in % (ECHCG) [%] | Post-emergence action against ALOMY in % (ALOMY) [%] | Post-emergence action against SETVI in % (SETVI) [%] | Post-emergence action against AVEFA in % (AVEFA) [%] | Post-emergence action against DIGSA in % (DIGSA) [%] | Post-emergence action against LOLRI in % (LOLRI) [%] | Post-emergence action against ABUTH in % (ABUTH) [%] |
| --- | --- | --- | --- | --- | --- | --- | --- | --- |
| CC#Cc1cc(Cl)c(C2=C(O)C3(CCC(COCC)C3)NC2=O)c(CC)c1 (stereo not drawn) [Example I-03] | 100 | 100 | 100 | 100 | 100 | 100 | 100 |  |
| CC#Cc1cc(Cl)c(C2=C(O)C3(CCC(COC)C3)NC2=O)c(CC)c1 (stereo not drawn) [Example I-04] | 100 | 100 | 100 | 100 | 100 | 100 | 100 |  |
| CC#Cc1cc(C)c(C2=C(O)C3(CCC(COC)C3)NC2=O)c(Cl)c1 (stereo not drawn) [Example I-06] | 100 | 100 | 100 | 100 | 100 | 100 | 100 | 80 |
| CC#Cc1cc(Cl)c(C2=C(O)C3(CCC(COCC)C3)NC2=O)c(OC)c1 (stereo not drawn) [Example I-07] | 100 | 100 | 100 | 100 | 100 | 100 | 100 |  |
| CC#Cc1cc(C)c(C2=C(O)C3(CCC(COCC)C3)NC2=O)c(Cl)c1 (stereo not drawn) [Example I-09] | 100 | 100 | 100 | 100 | 100 | 100 | 100 |  |
| CC#Cc1cc(C)c(C2=C(O)C3(CCC(COC)C3)NC2=O)c(Cl)c1 (stereo not drawn) [Example I-12] | 100 | 100 | 100 | 100 | 100 | 100 | 100 | 90 |
| C#Cc1cc(Cl)c(C2=C(O)C3(CCC(COC)C3)NC2=O)c(OC)c1 (stereo not drawn) [Example I-13] | 90 | 100 | 100 | 100 | 90 | 100 | 90 |  |
| C#Cc1cc(Cl)c(C2=C(O)C3(CCC(COCC)C3)NC2=O)c(OC)c1 (stereo not drawn) [Example I-14] | 90 | 90 | 90 | 90 | 90 | 90 | 90 |  |
| CC#Cc1cc(Cl)c(C2=C(O)C3(CCC(COCC)C3)NC2=O)c(CC)c1 (stereo not drawn) [Example I-15] | 100 | 100 | 100 | 100 | 100 | 100 | 100 |  |
| CC#Cc1cc(Cl)c(C2=C(O)C3(CCC(COC)C3)NC2=O)c(CC)c1 (stereo not drawn) [Example I-16] | 100 | 100 | 100 | 100 | 100 | 100 | 100 |  |
| C#Cc1cc(Cl)c(C2=C(OC(=O)OCC)C3(CCC(COC)C3)NC2=O)c(OC)c1 (stereo not drawn) [Example P-02] | 100 | 100 | 100 | 100 | 100 | 100 | 100 |  |
| CC#Cc1cc(C)c(C2=C(OC(=O)C(C)C)C3(CCC(COCC)C3)NC2=O)c(Cl)c1 (stereo not drawn) [Example P-03] | 100 | 100 | 100 | 100 | 100 | 100 | 100 | 80 |
| CC#Cc1cc(Cl)c(C2=C(OC(=O)OCC)C3(CCC(COC)C3)NC2=O)c(CC)c1 (stereo not drawn) [Example P-06] | 100 | 100 | 100 | 100 | 100 | 100 | 100 |  |
| CC#Cc1cc(Cl)c(C2=C(OC(=O)C(C)C)C3(CCC(COCC)C3)NC2=O)c(CC)c1 (stereo not drawn) [Example P-07] | 100 | 100 | 100 | 100 | 100 | 100 | 100 |  |
| CC#Cc1cc(C)c(C2=C(OC(=O)OCC)C3(CCC(COCC)C3)NC2=O)c(Cl)c1 (stereo not drawn) [Example P-09] | 100 | 100 | 100 | 100 | 100 | 100 | 100 |  |
| CC#Cc1cc(Cl)c(C2=C(OC(=O)C(C)C)C3(CCC(COCC)C3)NC2=O)c(CC)c1 (stereo not drawn) [Example P-12] | 100 | 100 | 100 | 100 | 100 | 100 | 100 |  |
| CC#Cc1cc(Cl)c(C2=C(OC(=O)OCC)C3(CCC(COC)C3)NC2=O)c(CC)c1 (stereo not drawn) [Example P-15] | 100 | 100 | 100 | 100 | 100 | 100 | 100 |  |
| C#Cc1cc(Cl)c(C2=C(OC(=O)OCC)C3(CCC(COC)C3)NC2=O)c(OC)c1 (stereo not drawn) [Example P-19] | 100 | 100 | 80 | 100 | 100 | 90 | 100 |  |
| CC#Cc1cc(Cl)c(C2=C(OC(=O)OCC)C3(CCC(COCC)C3)NC2=O)c(CC)c1 (stereo not drawn) [Example P-20] | 100 | 100 | 100 | 100 | 100 | 100 | 100 |  |
| CC#Cc1cc(Cl)c(C2=C(OC(=O)C(C)C)C3(CCC(COC)C3)NC2=O)c(CC)c1 (stereo not drawn) [Example P-22] | 100 | 100 | 100 | 100 | 100 | 100 | 100 |  |
| CC#Cc1cc(C)c(C2=C(OC(=O)OCC)C3(CCC(COC)C3)NC2=O)c(Cl)c1 (stereo not drawn) [Example P-24] | 100 | 100 | 100 | 100 | 100 | 100 | 100 |  |
